The SangsterLogP compilation

assay: method code SF-AS, from DOI: 10.1080/10826079608005496

SMILES | logP
CC(C)OC(=O)CSc1ccc([N+](=O)[O-])cc1Cl | 3.29
CC(C)OC(=O)CSc1ccc(Cl)cc1[N+](=O)[O-] | 3.14
CC(C)OC(=O)CSc1ccc([N+](=O)[O-])cc1[N+](=O)[O-] | 2.72
CC(C)OC(=O)CS(=O)(=O)c1ccc([N+](=O)[O-])cc1 | 1.79
CC(C)OC(=O)CS(=O)c1ccc([N+](=O)[O-])cc1Cl (stereo not drawn) | 2.04
COC(=O)CS(=O)c1ccc([N+](=O)[O-])cc1[N+](=O)[O-] (stereo not drawn) | 0.79
COC(=O)CSc1ccc(Cl)cc1[N+](=O)[O-] | 2.5
CC(C)OC(=O)CSc1ccc([N+](=O)[O-])cc1 | 2.66
COC(=O)CSc1ccc([N+](=O)[O-])cc1Cl | 2.66

Results, then the molecule that gave them:

logP | SMILES
1.6 | COC(=O)CS(=O)(=O)c1ccc(Cl)cc1[N+](=O)[O-]
2.12 | CC(C)OC(=O)CS(=O)(=O)c1ccc([N+](=O)[O-])cc1Cl
2.24 | CC(C)OC(=O)CS(=O)(=O)c1ccc(Cl)cc1[N+](=O)[O-]
1.6 | CC(C)OC(=O)CS(=O)(=O)c1ccccc1[N+](=O)[O-]
